Data taken from patent publication US8946478B2, “Benzamide derivative with anticancer activity and preparation method and use thereof” (Zhejiang Hisun Pharmaceutical Co., Ltd., priority 2010, dated 2015).

How the values were obtained:
[1] = system: human breast cancer cell strain MCF-7; assay: In vitro SRB tumor cell growth inhibition (GI50); type: cell-based; conditions: MCF-7 cells
Method: (§1) Human colon cancer cell strains (Colo205 and HCT-116), human breast cancer cell strains (MCF-7 and MDA-MB435), human lung cancer cell strains (A549, 95D and NCI460), human ovarian cancer cell strains (OVCAR-5, OVCAR-8, HO8910 and SKOV-3), human leukemia (HL-60 and K562), human prostate cancer (DU145 and BXPC-3), human uterine cancer (Hela), human pancreatic cancer (PANC-1), human hepatoma (HepG 2) were all obtained from ATCC. Colo205, HL-60, K562 cells were cultured in RPMI 1640 containing 2 mM/L glutamine, 10% FBS, 1.0 mM sodium pyruvate. HCT-116, MCF-7, A549, 95D, HO8910, NCI460, OVCAR-5, OVCAR-8, DU145, BXPC-3, Hela, PANC-1, HepG2 cells were cultured in DMEM containing 2 mM/L glutamine, 10% FBS. MDA-MB435 cells were cultured in L-15 containing 2 mM/L glutamine, 10% FBS. SKOV-3 cells were cultured in McCoy's containing 2 mM/L glutamine, 10% FBS. Colo205, HL-60 and K562 cells were seeded in 96-well plates, 150 μL/well and 8000 cells/well, and the 96-well plates were pre-incubated in an incubator at 37° C. with 5% CO2, 100% relative humidity for 24 hours. HCT-116, MCF-7, NCI460, OVCAR-5, OVCAR-8, Hela, HepG 2 and MDA-MB435 cells were seeded in 96-well plates, 5000 cells/well; A549, 95D, HO8910, DU145, BXPC-3, PANC-1 and SKOV-3 cells were seeded in 96-well plates, 10000 cells/well, and the 96-well plates were pre-incubated in an incubator at 37° C. with 5% CO2, 100% relative humidity for 24 hours, to allow the cells to adhere.
(§2) 50 μL of pre-cooled 50% (mass/volume) TCA was added into the time zero control wells for each cell strain to fix the cells. To other wells, 50 μL of various concentrations of compounds were added, and maintained for 48 h, wherein each drug concentration was in triplicate, and there were blank control wells (cell culture medium without cells), drug-free control wells (with no drugs but the same volume of complete medium) and positive drug BSI-201 control wells, and the plates were incubated in an incubator at 37° C. with 5% CO2, full humidity (100% relative humidity) for 48 hours
(§3) 50 μL pre-cooled 50% (mass/volume) TCA was added onto the surface of the culture medium to fix the cells, which was then placed at 4° C. for 1 h. The supernatant was removed and each well was washed with deionized water for 5 times to remove TCA, serum proteins, etc. After dried in the air, about 100 μL enough amount of 0.4% SRB (formulated with 1% acetic acid) was added into each well, and was placed at room temperature for 20 to 30 min. Liquid in each well was discarded and each well was rapidly washed with 1% acetic acid for five times, to remove unbound dye until the unbound dye was completely rinsed clean. After dried in the air until the moisture was invisible, each well was added 200 μL Tris base to dissolve, shaken on a plate oscillator for 5 min or mixed by beating up and down with a pipette tip, and then measured on the multi-function instruction (M5 Detection System, MD Group Ltd.) with a detection wavelength of 515 nm, zero adjusted with 690 nm blank control.
(§4) The dose-response curve was plotted by XL-fit to determine the GI50 value.

[2] = system: human breast cancer cell strain MDA-MB435; assay: In vitro SRB tumor cell growth inhibition (GI50); type: cell-based; conditions: MDA-MB435 cells
Method: as §1, §2, §3, §4

[3] = system: 18 tumor cell strains; assay: In vitro efficacy screening, summary over the tumor cell strains; type: cell-based, human; conditions: in vitro screening; for inhibitory effects on tumor cell proliferation (in words): BSI-201 as positive drug
Method: as §1, §2, §3, §4

[4] = system: human colon cancer cell strain HCT-116; assay: In vitro SRB tumor cell growth inhibition (GI50); type: cell-based; conditions: HCT-116 cells
Method: as §1, §2, §3, §4

[5] = system: human leukemia HL-60; assay: In vitro SRB tumor cell growth inhibition (GI50); type: cell-based; conditions: Homo sapiens, HL-60, 48 h, HL-60 cells
Method: as §1, §2, §3, §4

[6] = system: human lung cancer cell strain NCI-460; assay: In vitro SRB tumor cell growth inhibition (GI50); type: cell-based; conditions: NCI-460 cells
Method: as §1, §2, §3, §4

[7] = system: human lung cancer cell strain 95D; assay: In vitro SRB tumor cell growth inhibition (GI50); type: cell-based; conditions: 95D cells, 48 h
Method: as §1, §2, §3, §4

[8] = system: human ovarian cancer cell strain OVCAR-8; assay: In vitro SRB tumor cell growth inhibition (GI50); type: cell-based; conditions: OVCAR-8 cells
Method: as §1, §2, §3, §4

[9] = system: human prostate cancer DU145; assay: In vitro SRB tumor cell growth inhibition (GI50); type: cell-based; conditions: Homo sapiens, DU-145, 48 h, DU145 cells
Method: as §1, §2, §3, §4

For C#Cc1ccc(C(=O)N2CCOCC2)cc1[N+](=O)[O-] [Compound I-22, (4-ethynyl-3-nitrophenyl)(morpholin-4-yl)ketone], the GI50 ([1]; Homo sapiens, MCF7, 48 h) was 13.4 µM, the GI50 ([2]; Homo sapiens, MDA-MB-435, 48 h) was 6.53 µM and the “inhibitory effects on tumor cell proliferation (in words)” value (“inhibitory effects” below) [3] was “have inhibitory effects on tumor cell proliferation”.
C#Cc1ccc(C(=O)N(C)C)cc1[N+](=O)[O-] [Compound I-10, N,N-dimethyl-4-ethynyl-3-nitrobenzamide] was tested, and the GI50 ([1]; Homo sapiens, MCF7, 48 h) was 12.3 µM, the GI50 ([4]; Homo sapiens, HCT-116, 48 h) was 18.3 µM and the GI50 [5] was 3.78 µM. For the same molecule, the GI50 ([6]; Homo sapiens, NCI-460, 48 h) was 24.1 µM, the “efficacy in inhibition of tumor cell proliferation, graded in words against I-1” value (“efficacy in inhibition” below) [3] was “good effects on inhibition of tumor cell proliferation” and the “inhibitory effects” value [3] was “have inhibitory effects on tumor cell proliferation”.
For N#Cc1ccc(C(N)=O)cc1[N+](=O)[O-] [Compound I-8, 4-cyano-3-nitrobenzamide], the GI50 ([2]; Homo sapiens, MDA-MB-435, 48 h) was 32.2 µM, the GI50 ([4]; Homo sapiens, HCT-116, 48 h) was 13 µM and the “efficacy in inhibition” value [3] was “good effects on inhibition of tumor cell proliferation”. For the same molecule, the “inhibitory effects” value [3] was “have inhibitory effects on tumor cell proliferation”.
Work on C#Cc1ccc(C(=O)NCCCC)cc1[N+](=O)[O-] [Compound I-19, N-butyl-4-ethynyl-3-nitrobenzamide] yielded a GI50 ([1]; Homo sapiens, MCF7, 48 h) of 9.59 µM, a GI50 ([4]; Homo sapiens, HCT-116, 48 h) of 9.01 µM and a GI50 [5] of 5.15 µM. For the same molecule, the GI50 ([6]; Homo sapiens, NCI-460, 48 h) was 10.1 µM, the “efficacy in inhibition” value [3] was “good effects on inhibition of tumor cell proliferation” and the “inhibitory effects” value [3] was “have inhibitory effects on tumor cell proliferation”.
CC#Cc1ccc(C(N)=O)cc1[N+](=O)[O-] [Compound I-12, 4-(1-propynyl)-3-nitrobenzamide] was tested, and the GI50 [5] was 34.6 µM, the “efficacy in inhibition” value [3] was “good effects on inhibition of tumor cell proliferation” and the “inhibitory effects” value [3] was “have inhibitory effects on tumor cell proliferation”.
Molecule C#Cc1ccc(C(=O)NCCC)cc1[N+](=O)[O-] [Compound I-18, N-propyl-4-ethynyl-3-nitrobenzamide] has a GI50 ([1]; Homo sapiens, MCF7, 48 h) of 6.29 µM, a GI50 ([4]; Homo sapiens, HCT-116, 48 h) of 9.45 µM and a GI50 [5] of 4.86 µM. The GI50 ([6]; Homo sapiens, NCI-460, 48 h) was 7.09 µM, the “efficacy in inhibition” value [3] was “good effects on inhibition of tumor cell proliferation” and the “inhibitory effects” value [3] was “have inhibitory effects on tumor cell proliferation”.
C#Cc1ccc(C(=O)N2CCN(C)CC2)cc1[N+](=O)[O-].Cl [Compound I-29, (4-ethynyl-3-nitrophenyl)(4-methylpiperazin-1-yl)ketone hydrochloride] showed a GI50 ([1]; 48 h, hydrochloride) of 11.8 µM, a GI50 ([2]; 48 h, hydrochloride) of 8.44 µM and a GI50 ([4]; 48 h, hydrochloride) of 14.3 µM. For the same molecule, the GI50 ([7]; hydrochloride) was 15.8 µM, the GI50 ([6]; 48 h, hydrochloride) was 28.2 µM and the GI50 ([8]; 48 h, hydrochloride) was 29.3 µM. The “efficacy in inhibition” value [3] was “slightly lower than that of I-1” and the “inhibitory effects” value [3] was “have inhibitory effects on tumor cell proliferation”.
With CNC(=O)c1ccc(C#N)c([N+](=O)[O-])c1 [Compound I-27, N-methyl-4-cyano-3-nitrobenzamide] the GI50 ([1]; Homo sapiens, MCF7, 48 h) was 31.6 µM, the GI50 ([2]; Homo sapiens, MDA-MB-435, 48 h) was 29.3 µM and the “efficacy in inhibition” value [3] was “good effects on inhibition of tumor cell proliferation”. For the same molecule, the “inhibitory effects” value [3] was “have inhibitory effects on tumor cell proliferation”.
C#Cc1ccc(C(=O)NC(=O)OCCC)cc1[N+](=O)[O-] [Compound I-4, N-propoxycarbonyl-4-ethynyl-3-nitrobenzamide] was tested, and the GI50 ([2]; Homo sapiens, MDA-MB-435, 48 h) was 12.6 µM, the “efficacy in inhibition” value [3] was “good effects on inhibition of tumor cell proliferation” and the “inhibitory effects” value [3] was “have inhibitory effects on tumor cell proliferation”.
In the case of C#Cc1ccc(C(=O)NC)cc1[N+](=O)[O-] [Compound I-9, N-methyl-4-ethynyl-3-nitrobenzamide], the GI50 ([1]; Homo sapiens, MCF7, 48 h) is reported as 6.7 µM, the GI50 ([4]; Homo sapiens, HCT-116, 48 h) is reported as 22.5 µM and the GI50 [5] is reported as 9.71 µM. The GI50 ([6]; Homo sapiens, NCI-460, 48 h) was 11.5 µM, the “efficacy in inhibition” value [3] was “good effects on inhibition of tumor cell proliferation” and the “inhibitory effects” value [3] was “have inhibitory effects on tumor cell proliferation”.
C#Cc1ccc(C(=O)NC(C)=O)cc1[N+](=O)[O-] [Compound I-11, N-acetyl-4-ethynyl-3-nitrobenzamide] gave a GI50 ([1]; Homo sapiens, MCF7, 48 h) of 10.7 µM, a GI50 ([4]; Homo sapiens, HCT-116, 48 h) of 12.1 µM and a GI50 [5] of 2.35 µM. The GI50 ([6]; Homo sapiens, NCI-460, 48 h) was 13.4 µM, the “efficacy in inhibition” value [3] was “good effects on inhibition of tumor cell proliferation” and the “inhibitory effects” value [3] was “have inhibitory effects on tumor cell proliferation”.
Work on C#Cc1ccc(C(=O)N(CCC)CCC)cc1[N+](=O)[O-] [Compound I-15, N,N-dipropyl-4-ethynyl-3-nitrobenzamide] yielded a GI50 ([1]; Homo sapiens, MCF7, 48 h) of 9.92 µM, a GI50 ([4]; Homo sapiens, HCT-116, 48 h) of 12 µM and a GI50 ([6]; Homo sapiens, NCI-460, 48 h) of 17 µM. For the same molecule, the GI50 [9] was 2.37 µM, the “efficacy in inhibition” value [3] was “slightly lower than that of I-1” and the “inhibitory effects” value [3] was “have inhibitory effects on tumor cell proliferation”.
In the case of C#Cc1ccc(C(=O)NC(=O)OCCCC)cc1[N+](=O)[O-] [Compound I-5, N-butoxycarbonyl-4-ethynyl-3-nitrobenzamide], the GI50 ([1]; Homo sapiens, MCF7, 48 h) is reported as 10.1 µM, the GI50 ([4]; Homo sapiens, HCT-116, 48 h) is reported as 17.9 µM and the GI50 ([6]; Homo sapiens, NCI-460, 48 h) is reported as 20.1 µM. For the same molecule, the “efficacy in inhibition” value [3] was “good effects on inhibition of tumor cell proliferation” and the “inhibitory effects” value [3] was “have inhibitory effects on tumor cell proliferation”.
Molecule C#Cc1ccc(C(=O)N(CCCC)CCCC)cc1[N+](=O)[O-] [Compound I-16, N,N-dibutyl-4-ethynyl-3-nitrobenzamide] has a GI50 ([1]; Homo sapiens, MCF7, 48 h) of 8.21 µM, a GI50 ([4]; Homo sapiens, HCT-116, 48 h) of 12.9 µM and a GI50 [5] of 1.27 µM. The GI50 ([6]; Homo sapiens, NCI-460, 48 h) was 15.5 µM, the “efficacy in inhibition” value [3] was “good effects on inhibition of tumor cell proliferation” and the “inhibitory effects” value [3] was “have inhibitory effects on tumor cell proliferation”.
Molecule C#Cc1ccc(C(=O)N2CCC2)cc1[N+](=O)[O-] [Compound I-25] has a GI50 ([1]; Homo sapiens, MCF7, 48 h) of 9.5 µM, a GI50 ([4]; Homo sapiens, HCT-116, 48 h) of 10.9 µM and a GI50 ([6]; Homo sapiens, NCI-460, 48 h) of 27.7 µM. It also gave a GI50 ([8]; Homo sapiens, OVCAR-8, 48 h) of 14.4 µM.
For C#Cc1ccc(C(=O)NC(=O)c2ccccc2)cc1[N+](=O)[O-] [Compound I-13, N-benzoyl-4-ethynyl-3-nitrobenzamide], the GI50 ([1]; Homo sapiens, MCF7, 48 h) was 25.3 µM, the GI50 ([2]; Homo sapiens, MDA-MB-435, 48 h) was 6.24 µM and the “efficacy in inhibition” value [3] was “good effects on inhibition of tumor cell proliferation”. For the same molecule, the “inhibitory effects” value [3] was “have inhibitory effects on tumor cell proliferation”.
Molecule C#Cc1ccc(C(N)=O)cc1N=O [Compound I-28, 4-ethynyl-3-nitrosobenzamide] has a GI50 ([1]; Homo sapiens, MCF7, 48 h) of 9.78 µM, a GI50 ([7]; Homo sapiens, 95-D) of 18.1 µM and a GI50 ([8]; Homo sapiens, OVCAR-8, 48 h) of 17.2 µM. For the same molecule, the “efficacy in inhibition” value [3] was “good effects on inhibition of tumor cell proliferation” and the “inhibitory effects” value [3] was “have inhibitory effects on tumor cell proliferation”.
